Source: ChEMBL document CHEMBL2074209, “Coinduction of MDR-1 multidrug-resistance and cytochrome P-450 genes in rat liver by xenobiotics” (J Natl Cancer Inst, 1988)

Target: Multidrug resistance protein 1a (Rattus norvegicus) (UniProt Q6PSM0)
Assay: TP_TRANSPORTER: Northern blot in vivo Fischer male rat
Type: functional, organism-based

Chain of Multidrug resistance protein 1a (Rattus norvegicus) (Q6PSM0 as listed by the source): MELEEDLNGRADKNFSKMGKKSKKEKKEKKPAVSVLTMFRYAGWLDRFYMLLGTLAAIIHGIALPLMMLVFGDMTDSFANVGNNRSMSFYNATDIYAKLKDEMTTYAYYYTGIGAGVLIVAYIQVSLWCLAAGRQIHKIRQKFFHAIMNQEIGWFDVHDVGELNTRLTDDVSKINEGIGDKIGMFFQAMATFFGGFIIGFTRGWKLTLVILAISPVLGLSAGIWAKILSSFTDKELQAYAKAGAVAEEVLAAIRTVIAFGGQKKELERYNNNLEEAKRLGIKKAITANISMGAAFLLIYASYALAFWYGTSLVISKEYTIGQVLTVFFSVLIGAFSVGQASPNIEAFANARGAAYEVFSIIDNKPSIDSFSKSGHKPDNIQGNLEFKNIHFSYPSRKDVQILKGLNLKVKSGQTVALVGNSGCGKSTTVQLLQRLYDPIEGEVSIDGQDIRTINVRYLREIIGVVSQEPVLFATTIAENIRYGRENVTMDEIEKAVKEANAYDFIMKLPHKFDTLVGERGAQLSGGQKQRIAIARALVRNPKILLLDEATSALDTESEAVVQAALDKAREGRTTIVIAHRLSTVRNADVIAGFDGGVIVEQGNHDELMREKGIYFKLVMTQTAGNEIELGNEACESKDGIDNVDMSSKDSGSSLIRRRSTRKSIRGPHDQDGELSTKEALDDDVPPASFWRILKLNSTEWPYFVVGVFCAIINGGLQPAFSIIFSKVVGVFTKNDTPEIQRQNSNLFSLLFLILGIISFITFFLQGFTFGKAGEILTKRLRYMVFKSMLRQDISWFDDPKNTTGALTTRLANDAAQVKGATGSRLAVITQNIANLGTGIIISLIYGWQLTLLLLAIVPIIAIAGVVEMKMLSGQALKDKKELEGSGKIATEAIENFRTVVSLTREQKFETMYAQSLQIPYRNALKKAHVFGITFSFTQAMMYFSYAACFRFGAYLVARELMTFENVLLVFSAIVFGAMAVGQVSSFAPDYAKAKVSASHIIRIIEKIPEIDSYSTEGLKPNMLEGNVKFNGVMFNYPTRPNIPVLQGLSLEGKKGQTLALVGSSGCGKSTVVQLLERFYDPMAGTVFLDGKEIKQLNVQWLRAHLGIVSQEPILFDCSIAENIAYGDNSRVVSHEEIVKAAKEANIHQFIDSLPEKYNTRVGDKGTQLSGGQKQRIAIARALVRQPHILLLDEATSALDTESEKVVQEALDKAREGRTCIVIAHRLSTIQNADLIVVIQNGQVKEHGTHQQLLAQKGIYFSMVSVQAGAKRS

SMILES	Activity
Clc1cc2c(cc1Cl)Oc1cc(Cl)c(Cl)cc1O2	inducer [+]
c1ccc2c(c1)Nc1ccccc1S2	inducer [+]
C/C=C/c1ccc2c(c1)OCO2	inducer [+]
COc1cc2c(c3oc(=O)c4c(c13)CCC4=O)[C@@H]1C=CO[C@@H]1O2	inducer [+]
CC(=O)N(O)c1ccc2c(c1)Cc1ccccc1-2	inducer [+]
